# Molecular target: Human factor D (Homo sapiens (Human), UniProt P00746)
# Test: Human Factor D Assay
# Assay type: biochemical
# Conditions: human factor D 80 nM, substrate Z-L-Lys-SBzl, DTNB, OD405
# Method: Human factor D (purified from human serum, Complement Technology, Inc.) at 80 nM final concentration is incubated with test compound at various concentrations for 5 minutes at room temperature in 50 mM Tris, 1M NaCl, pH 7.5. A synthetic substrate Z-L-Lys-SBzl and DTNB (Ellman's reagent) are added to final concentrations of 10 μM each. The increase in color is recorded at OD405 nm in a microplate in kinetic mode over 30 minutes with 30 second time points in a […]. IC50 values are calculated by non-linear regression from the percentage of inhibition of complement factor D activity as a function of test compound concentration.
# Chain of Human factor D (P00746 26-253): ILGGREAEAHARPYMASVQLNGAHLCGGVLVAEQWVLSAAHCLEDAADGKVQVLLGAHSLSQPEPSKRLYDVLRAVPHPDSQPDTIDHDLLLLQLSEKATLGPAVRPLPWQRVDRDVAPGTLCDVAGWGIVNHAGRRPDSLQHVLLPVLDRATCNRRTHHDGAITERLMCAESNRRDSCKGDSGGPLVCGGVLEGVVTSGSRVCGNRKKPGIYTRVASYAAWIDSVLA
row,SMILES,IC50
1,"CC(=O)c1cn(CC(=O)N2C[C@H](F)C[C@H]2C(=O)Nc2cccc(SC(F)(F)F)c2)c2cc(O)ccc12 [Compound 48, (2S,4R)-1-(2-(3-acetyl-6-hydroxy-1H-indol-1-yl)acetyl)-4-fluoro-N-(3-(trifluoromethylthio)phenyl)pyrrolidine-2-carboxamide]",< 1000 nM
2,CC(=O)c1cn(C(C)C(=O)N2C[C@H](F)C[C@H]2C(=O)NCc2cccc(Cl)c2F)c2ccccc12 (stereo partly drawn) [Compound 55],> 10000 nM
3,CC(=O)c1cn(C(C)(C)C(=O)N2C[C@H](F)C[C@H]2C(=O)NCc2cccc(Cl)c2F)c2ccccc12 [Compound 56],> 10000 nM
4,CCOP(=O)(OCC)c1cc(Cl)c(F)c(CNC(=O)[C@@H]2C[C@@H](F)CN2C(=O)Cn2cc(C(C)=O)c3ccccc32)c1 [Compound 61],< 1000 nM
5,CC(=O)c1cn(CC(=O)N2[C@@H]3CCC[C@@H]3C[C@H]2C(=O)NCc2cccc(Cl)c2F)c2cc(O)ccc12 [Compound 62],< 1000 nM
6,"CC(=O)c1cn(CC(=O)N2C[C@H](F)C[C@H]2C(=O)NCc2cc(P(=O)(O)O)cc(Cl)c2F)c2ccccc12 [Compound 63, 3-(((2S,4R)-1-(2-(3-acetyl-1H-indol-1-yl)acetyl)-4-fluoropyrrolidine-2-carboxamido)methyl)-5-chloro-4-fluorophenylphosphonic acid]",< 1000 nM
7,"CC(C)(C)OC(=O)N1CCc2c(n(CC(=O)N3C[C@H](F)C[C@H]3C(=O)NCc3cccc(Cl)c3F)c3ccccc23)C1 [Compound 67, tert-butyl 9-(2-((2S,4R)-2-(3-chloro-2-fluorobenzylcarbamoyl)-4-fluoropyrrolidin-1-yl)-2-oxoethyl)-3,4-dihydro-1H-pyrido[3,4-b]indole-2(9H)-carboxylate]",> 10000 nM
8,"CCOC(=O)CC(=O)N1CCc2c(n(CC(=O)N3C[C@H](F)C[C@H]3C(=O)NCc3cccc(Cl)c3F)c3ccccc23)C1 [Compound 70, ethyl 3-(9-(2-((2S,4R)-2-(3-chloro-2-fluorobenzylcarbamoyl)-4-fluoropyrrolidin-1-yl)-2-oxoethyl)-3,4-dihydro-1H-pyrido[3,4-b]indol-2(9H)-yl)-3-oxopropanoate]",> 10000 nM
9,"CC(=O)c1cn(CC(=O)N2C[C@H](F)C[C@H]2C(=O)Nc2cccc(-c3ccccc3Cl)c2F)c2c(C#N)cccc12 [Compound 79, (2S,4R)-1-(2-(3-acetyl-7-cyano-1H-indol-1-yl)acetyl)-N-(2′-chloro-2-fluorobiphenyl-3-yl)-4-fluoropyrrolidine-2-carboxamide]",< 1000 nM
10,"NC(=O)c1nn(CC(=O)N2C[C@H](F)C[C@H]2C(=O)Nc2cccc(-c3cc(F)c(F)cc3Cl)c2F)c2ccccc12 [Compound 80, 1-(2-((2S,4R)-2-(2′-chloro-2,4′,5′-trifluorobiphenyl-3-ylcarbamoyl)-4-fluoropyrrolidin-1-yl)-2-oxoethyl)-1H-indazole-3-carboxamide]",< 1000 nM
11,"CC(=O)c1cn(CC(=O)N2C[C@H](F)C[C@H]2C(=O)Nc2cccc(Br)n2)c2ccc(C3(N4C(=O)c5ccccc5C4=O)CC3)cc12 [Compound 81, (2S,4R)-1-(2-(3-acetyl-5-(1-(1,3-dioxoisoindolin-2-yl)cyclopropyl)-1H-indol-1-yl)acetyl)-N-(6-bromopyridin-2-yl)-4-fluoropyrrolidine-2-carboxamide]",< 1000 nM
12,"CC(=O)c1cn(CC(=O)N2C[C@H](F)C[C@H]2C(=O)Nc2cccc(-c3cc(F)c(F)cc3Cl)c2F)c2ccccc12 [Compound 82, (2S,4R)-1-(2-(3-acetyl-1H-indol-1-yl)acetyl)-N-(2′-chloro-2,4′,5′-trifluorobiphenyl-3-yl)-4-fluoropyrrolidine-2-carboxamide]",< 1000 nM

# More lines, now with the values ahead:
row,IC50,SMILES
1,> 10000 nM,"CC(C)(C)OC(=O)N[C@@H](Cc1c[nH]c2ccccc12)C(=O)N1C[C@H](F)C[C@H]1C(=O)NCc1cccc(Cl)c1F [Compound 38, tert-butyl (S)-1-((2S,4R)-2-(3-chloro-2-fluorobenzylcarbamoyl)-4-fluoropyrrolidin-1-yl)-3-(1H-indol-3-yl)-1-oxopropan-2-ylcarbamate]"
2,> 10000 nM,"N[C@@H](Cc1c[nH]c2ccccc12)C(=O)N1C[C@H](F)C[C@H]1C(=O)NCc1cccc(Cl)c1F [Compound 39, (2S,4R)-1-((S)-2-amino-3-(1H-indol-3-yl)propanoyl)-N-(3-chloro-2-fluorobenzyl)-4-fluoropyrrolidine-2-carboxamide]"
3,< 1000 nM,"O=C(NCc1cccc(Cl)c1F)[C@@H]1C[C@@H](F)CN1C(=O)Cn1cc([N+](=O)[O-])c2ccccc21 [Compound 46, (2S,4R)-N-(3-chloro-2-fluorobenzyl)-4-fluoro-1-(2-(3-nitro-1H-indol-1-yl)acetyl)pyrrolidine-2-carboxamide]"
4,< 1000 nM,"CC(=O)Nc1cn(CC(=O)N2C[C@H](F)C[C@H]2C(=O)NCc2cccc(Cl)c2F)c2ccccc12 [Compound 47, (2S,4R)-1-(2-(3-acetamido-1H-indol-1-yl)acetyl)-N-(3-chloro-2-fluorobenzyl)-4-fluoropyrrolidine-2-carboxamide]"
5,> 10000 nM,"O=C(NCc1cccc(Cl)c1F)[C@@H]1C[C@@H](F)CN1C(=O)c1csc(-c2cccnc2)n1 [Compound 50, (2S,4R)-N-(3-chloro-2-fluorobenzyl)-4-fluoro-1-(2-(pyridin-3-yl)thiazole-4-carbonyl)pyrrolidine-2-carboxamide]"
6,> 10000 nM,"CC(=O)Nc1ccc(C(=O)N2C[C@H](F)C[C@H]2C(=O)NCc2cccc(Cl)c2F)cn1 [Compound 51, (2S,4R)-1-(6-acetamidonicotinoyl)-N-(3-chloro-2-fluorobenzyl)-4-fluoropyrrolidine-2-carboxamide]"
7,< 1000 nM,"O=C(NCc1cccc(Cl)c1F)[C@@H]1C[C@@H](F)CN1C(=O)Cn1nc(I)c2ccncc21 [Compound 52, (2S,4R)-N-(3-chloro-2-fluorobenzyl)-4-fluoro-1-(2-(3-iodo-1H-pyrazolo[3,4-c]pyridin-1-yl)acetyl)pyrrolidine-2-carboxamide]"
8,< 1000 nM,"O=C(NCc1cccc(Cl)c1F)[C@@H]1C[C@@H](F)CN1C(=O)Nc1cn(C(=O)C2CC2)c2ccccc12 [Compound 54, (2S,4R)-N2-(3-chloro-2-fluorobenzyl)-N1-(1-(cyclopropanecarbonyl)-1H-indol-3-yl)-4-fluoropyrrolidine-1,2-dicarboxamide]"
9,> 10000 nM,"O=C(NCc1cccc(Cl)c1F)[C@@H]1C[C@@H](F)CN1C(=O)CN1C=NS(=O)(=O)c2ccccc21 [Compound 65, (2S,4R)-N-(3-chloro-2-fluorobenzyl)-1-(2-(1,1-dioxido-4H-benzo[e][1,2,4]thiadiazin-4-yl)acetyl)-4-fluoropyrrolidine-2-carboxamide]"
10,> 10000 nM,"O=C(NCc1cccc(Cl)c1F)[C@@H]1C[C@@H](F)CN1C(=O)Cn1c2c(c3ccccc31)CCNC2 [Compound 68, (2S,4R)-N-(3-chloro-2-fluorobenzyl)-1-(2-(3,4-dihydro-1H-pyrido[3,4-b]indol-9(2H)-yl)acetyl)-4-fluoropyrrolidine-2-carboxamide]"
11,> 10000 nM,"CC(=O)n1cc(C(=O)C(=O)N2C[C@H](F)C[C@H]2C(=O)NCc2cccc(Cl)c2F)c2ccccc21 [Compound 71, (2S,4R)-1-(2-(1-acetyl-1H-indol-3-yl)-2-oxoacetyl)-N-(3-chloro-2-fluorobenzyl)-4-fluoropyrrolidine-2-carboxamide]"
12,> 10000 nM,"O=C(O)CCC(=O)N1CCc2c(n(CC(=O)N3C[C@H](F)C[C@H]3C(=O)NCc3cccc(Cl)c3F)c3ccccc23)C1 [Compound 72, 4-(9-(2-((2S,4R)-2-(3-chloro-2-fluorobenzylcarbamoyl)-4-fluoropyrrolidin-1-yl)-2-oxoethyl)-3,4-dihydro-1H-pyrido[3,4-b]indol-2(9H)-yl)-4-oxobutanoic acid]"
13,< 1000 nM,"O=C(NCc1cccc(Cl)c1F)[C@@H]1C[C@@H](F)CN1C(=O)Cn1nc(-c2cn[nH]c2)c2ccncc21 [Compound 73, (2S,4R)-1-(2-(3-(1H-pyrazol-4-yl)-1H-pyrazolo[3,4-c]pyridin-1-yl)acetyl)-N-(3-chloro-2-fluorobenzyl)-4-fluoropyrrolidine-2-carboxamide]"
14,< 1000 nM,"C=C(F)c1nn(CC(=O)N2C[C@H](F)C[C@H]2C(=O)NCc2cccc(Cl)c2F)c2cnccc12 [Compound 74, (2S,4R)-N-(3-chloro-2-fluorobenzyl)-4-fluoro-1-(2-(3-(1-fluorovinyl)-1H-pyrazolo[3,4-c]pyridin-1-yl)acetyl)pyrrolidine-2-carboxamide]"
15,< 1000 nM,"O=C(NCc1cccc(Cl)c1F)[C@@H]1C[C@@H](F)CN1C(=O)Cn1nc(-c2cnc[nH]2)c2ccncc21 [Compound 75, (2S,4R)-1-(2-(3-(1H-imidazol-5-yl)-1H-pyrazolo[3,4-c]pyridin-1-yl)acetyl)-N-(3-chloro-2-fluorobenzyl)-4-fluoropyrrolidine-2-carboxamide]"
16,< 1000 nM,"NS(=O)(=O)c1cn(CC(=O)N2C[C@H](F)C[C@H]2C(=O)NCc2cccc(Cl)c2F)c2ccccc12 [Compound 76, (2S,4R)-N-(3-chloro-2-fluorobenzyl)-4-fluoro-1-(2-(3-sulfamoyl-1H-indol-1-yl)acetyl)pyrrolidine-2-carboxamide]"
17,< 1000 nM,"NC(=O)c1nn(CC(=O)N2[C@@H]3C[C@@H]3C[C@H]2C(=O)Nc2cccc(-c3ccccc3Cl)c2F)cc1Br [Compound 77, (1R,3S,5R)-2-(2-(4-bromo-3-carbamoyl-1H-pyrazol-1-yl)acetyl)-N-(2′-chloro-2-fluorobiphenyl-3-yl)-2-azabicyclo[3.1.0]hexane-3-carboxamide]"
18,< 1000 nM,"NC(=O)c1nn(CC(=O)N2C[C@H](F)C[C@H]2C(=O)Nc2cccc(-c3cc(F)c(F)cc3Cl)c2F)c2cnccc12 [Compound 83, 1-(2-((2S,4R)-2-(2′-chloro-2,4′,5′-trifluorobiphenyl-3-ylcarbamoyl)-4-fluoropyrrolidin-1-yl)-2-oxoethyl)-1H-pyrazolo[3,4-c]pyridine-3-carboxamide]"
